Data: BindingDB's records for doi:10.1021/jm00003a019 (Research Triangle Institute, 1995)

Assay: Binding affinity at Sigma receptor type 1, displacement of [3H](+)-pentazocine from guinea pig brain membranes

Row | SMILES | Ki
1 | C[C@@H]1[C@@H]2Cc3ccc(O)cc3[C@@]1(C)CCN2Cc1ccc(C#N)cc1 [4-((2S,6S,11S)-8-Hydroxy-6,11-dimethyl-1,2,5,6-tetrahydro-4H-2,6-methano-benzo[d]azocin-3-ylmethyl)-benzonitrile] | 1.53 nM
2 | C[C@@H]1[C@@H]2Cc3ccc(O)cc3[C@@]1(C)CCN2Cc1ccccc1F [(2S,6S,11S)-3-(2-Fluoro-benzyl)-6,11-dimethyl-1,2,3,4,5,6-hexahydro-2,6-methano-benzo[d]azocin-8-ol] | 1.45 nM
3 | C[C@@H]1[C@@H]2Cc3ccc(O)cc3[C@@]1(C)CCN2Cc1ccccc1I [(2S,6S,11S)-3-(2-Iodo-benzyl)-6,11-dimethyl-1,2,3,4,5,6-hexahydro-2,6-methano-benzo[d]azocin-8-ol] | 930 nM
4 | C[C@@H]1[C@@H]2Cc3ccc(O)cc3[C@@]1(C)CCN2Cc1cccc(I)c1 [(2S,6S,11S)-3-(3-Iodo-benzyl)-6,11-dimethyl-1,2,3,4,5,6-hexahydro-2,6-methano-benzo[d]azocin-8-ol] | 27.2 nM
5 | C[C@@H]1[C@@H]2Cc3ccc(O)cc3[C@@]1(C)CCN2Cc1ccc(N)cc1 [(2S,6S,11S)-3-(4-Amino-benzyl)-6,11-dimethyl-1,2,3,4,5,6-hexahydro-2,6-methano-benzo[d]azocin-8-ol] | 16.8 nM
6 | C[C@@H]1[C@@H]2Cc3ccc(O)cc3[C@@]1(C)CCN2Cc1ccc(Br)cc1 [(2S,6S,11S)-3-(4-Bromo-benzyl)-6,11-dimethyl-1,2,3,4,5,6-hexahydro-2,6-methano-benzo[d]azocin-8-ol] | 3.11 nM
7 | C[C@@H]1[C@@H]2Cc3ccc(O)cc3[C@@]1(C)CCN2Cc1ccc(Cl)cc1 [(2S,6S,11S)-3-(4-Chloro-benzyl)-6,11-dimethyl-1,2,3,4,5,6-hexahydro-2,6-methano-benzo[d]azocin-8-ol] | 2.37 nM
8 | C[C@@H]1[C@@H]2Cc3ccc(O)cc3[C@@]1(C)CCN2Cc1ccc(N(C)C)cc1 [(2S,6S,11S)-3-(4-Dimethylamino-benzyl)-6,11-dimethyl-1,2,3,4,5,6-hexahydro-2,6-methano-benzo[d]azocin-8-ol] | 102 nM
9 | C[C@@H]1[C@@H]2Cc3ccc(O)cc3[C@@]1(C)CCN2Cc1ccc(F)cc1 [(2S,6S,11S)-3-(4-Fluoro-benzyl)-6,11-dimethyl-1,2,3,4,5,6-hexahydro-2,6-methano-benzo[d]azocin-8-ol] | 0.97 nM
10 | C[C@@H]1[C@@H]2Cc3ccc(O)cc3[C@@]1(C)CCN2Cc1ccc(I)c([N+](=O)[O-])c1 [(2S,6S,11S)-3-(4-Iodo-3-nitro-benzyl)-6,11-dimethyl-1,2,3,4,5,6-hexahydro-2,6-methano-benzo[d]azocin-8-ol] | 386 nM
11 | C[C@@H]1[C@@H]2Cc3ccc(O)cc3[C@@]1(C)CCN2Cc1ccc(I)cc1 [(2S,6S,11S)-3-(4-Iodo-benzyl)-6,11-dimethyl-1,2,3,4,5,6-hexahydro-2,6-methano-benzo[d]azocin-8-ol] | 16.5 nM
12 | COc1ccc(CN2CC[C@]3(C)c4cc(O)ccc4C[C@H]2[C@H]3C)cc1 [(2S,6S,11S)-3-(4-Methoxy-benzyl)-6,11-dimethyl-1,2,3,4,5,6-hexahydro-2,6-methano-benzo[d]azocin-8-ol] | 2.89 nM
13 | C[C@@H]1[C@@H]2Cc3ccc(O)cc3[C@@]1(C)CCN2Cc1ccc(C(C)(C)C)cc1 [(2S,6S,11S)-3-(4-tert-Butyl-benzyl)-6,11-dimethyl-1,2,3,4,5,6-hexahydro-2,6-methano-benzo[d]azocin-8-ol] | 1070 nM
14 | Cc1ccccc1CN1CC[C@]2(C)c3cc(O)ccc3C[C@H]1[C@H]2C [(2S,6S,11S)-6,11-Dimethyl-3-(2-methyl-benzyl)-1,2,3,4,5,6-hexahydro-2,6-methano-benzo[d]azocin-8-ol] | 12.8 nM
15 | Cc1ccc(CN2CC[C@]3(C)c4cc(O)ccc4C[C@H]2[C@H]3C)cc1 [(2S,6S,11S)-6,11-Dimethyl-3-(4-methyl-benzyl)-1,2,3,4,5,6-hexahydro-2,6-methano-benzo[d]azocin-8-ol] | 2.08 nM
16 | C[C@@H]1[C@@H]2Cc3ccc(O)cc3[C@@]1(C)CCN2Cc1ccc([N+](=O)[O-])cc1 [(2S,6S,11S)-6,11-Dimethyl-3-(4-nitro-benzyl)-1,2,3,4,5,6-hexahydro-2,6-methano-benzo[d]azocin-8-ol] | 2.19 nM
17 | C[C@@H]1[C@@H]2Cc3ccc(O)cc3[C@@]1(C)CCN2Cc1ccc(C(F)(F)F)cc1 [(2S,6S,11S)-6,11-Dimethyl-3-(4-trifluoromethyl-benzyl)-1,2,3,4,5,6-hexahydro-2,6-methano-benzo[d]azocin-8-ol] | 20.5 nM
18 | CC(=O)Nc1ccc(CN2CC[C@]3(C)c4cc(O)ccc4C[C@H]2[C@H]3C)cc1 [N-[4-((2S,6S,11S)-8-Hydroxy-6,11-dimethyl-1,2,5,6-tetrahydro-4H-2,6-methano-benzo[d]azocin-3-ylmethyl)-phenyl]-acetamide] | 47 nM
